Experimental data as given in ChEMBL document CHEMBL3414430 (J Med Chem, 2015).
pEC50, pIC50: −log10 of the molar value. In brackets after ≈: the same amount, converted by molar mass. Each block holds one compound with its values, some of them ahead of it. Activity calls are given as the source filed them. No cut-off for these calls is given here.

What was measured:
[1] = Half life in ICR mouse at 25 mg/kg, iv; format: ADME, organism-based; parameters: dose 25 mg/kg, route intravenous; details: in vivo
[2] = Cmax in ICR mouse at 50 mg/kg, po; format: ADME, organism-based; parameters: dose 50 mg/kg, route oral; details: in vivo
[3] = target: Histone deacetylase 1/2/3/6 (Homo sapiens) (UniProt Q13547+O15379+Q9UBN7+Q92769); details: HeLa, at 10 µM
Histone deacetylase 1/2/3/6 (Homo sapiens), sequence (O15379 whole entry, looked up, one chain of several): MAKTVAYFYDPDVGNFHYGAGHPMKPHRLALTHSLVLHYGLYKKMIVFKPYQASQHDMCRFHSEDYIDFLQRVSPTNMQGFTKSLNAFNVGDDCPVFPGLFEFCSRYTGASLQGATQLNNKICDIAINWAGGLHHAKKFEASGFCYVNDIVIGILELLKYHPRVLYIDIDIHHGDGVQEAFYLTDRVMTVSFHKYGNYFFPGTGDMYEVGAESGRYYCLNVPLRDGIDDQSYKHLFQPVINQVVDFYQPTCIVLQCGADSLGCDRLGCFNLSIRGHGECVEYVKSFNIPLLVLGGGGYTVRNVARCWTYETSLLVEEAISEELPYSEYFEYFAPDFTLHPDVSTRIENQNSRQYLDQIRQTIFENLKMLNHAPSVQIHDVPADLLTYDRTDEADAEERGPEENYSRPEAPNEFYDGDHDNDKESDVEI
Histone deacetylase 1/2/3/6 (Homo sapiens), sequence (Q13547 whole entry, looked up, one chain of several): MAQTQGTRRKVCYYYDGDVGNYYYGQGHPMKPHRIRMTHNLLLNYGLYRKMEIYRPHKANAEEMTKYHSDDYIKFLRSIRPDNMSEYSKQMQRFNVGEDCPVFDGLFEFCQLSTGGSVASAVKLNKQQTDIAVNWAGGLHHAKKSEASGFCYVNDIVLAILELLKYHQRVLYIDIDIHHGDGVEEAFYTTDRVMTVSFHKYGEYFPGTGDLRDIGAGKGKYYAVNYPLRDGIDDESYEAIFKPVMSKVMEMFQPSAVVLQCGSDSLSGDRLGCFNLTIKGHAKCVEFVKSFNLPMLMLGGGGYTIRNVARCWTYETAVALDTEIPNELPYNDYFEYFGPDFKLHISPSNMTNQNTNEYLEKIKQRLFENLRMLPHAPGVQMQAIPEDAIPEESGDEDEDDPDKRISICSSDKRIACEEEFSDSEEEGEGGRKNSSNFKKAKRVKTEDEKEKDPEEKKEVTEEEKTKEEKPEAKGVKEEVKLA
Histone deacetylase 1/2/3/6 (Homo sapiens), sequence (Q92769 whole entry, looked up, one chain of several): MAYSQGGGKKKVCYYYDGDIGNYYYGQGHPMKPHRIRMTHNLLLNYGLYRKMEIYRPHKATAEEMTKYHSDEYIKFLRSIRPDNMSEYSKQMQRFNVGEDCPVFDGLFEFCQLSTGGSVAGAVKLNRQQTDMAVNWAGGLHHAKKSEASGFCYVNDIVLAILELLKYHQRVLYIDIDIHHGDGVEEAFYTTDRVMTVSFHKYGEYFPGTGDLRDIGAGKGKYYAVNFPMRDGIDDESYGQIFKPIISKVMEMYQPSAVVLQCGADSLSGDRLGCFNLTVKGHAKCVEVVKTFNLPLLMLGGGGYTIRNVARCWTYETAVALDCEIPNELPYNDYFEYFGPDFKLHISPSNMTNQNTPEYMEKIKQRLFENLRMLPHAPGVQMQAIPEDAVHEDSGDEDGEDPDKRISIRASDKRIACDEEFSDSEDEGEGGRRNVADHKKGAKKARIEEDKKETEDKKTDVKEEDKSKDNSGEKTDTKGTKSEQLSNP
Description: Inhibition of HDAC1/HDAC2/HDAC3 in human HeLa cells assessed as induction of p21 gene expression at 10 uM after 15 hrs by luciferase reporter gene assay relative to HDAC1 inhibitor SNDX-275

[4] = Plasma clearance in ICR mouse; format: ADME, organism-based
Mus musculus [5] = assay: AUC (0 to infinity) in ICR mouse at 50 mg/kg, po; format: ADME, organism-based, Plasma; parameters: time infinity, dose 50 mg/kg, route oral; details: in vivo
[6] = Solubility of the compound in PBS measured after overnight incubation by LYSA assay; format: physicochemical
[7] = Intrinsic clearance in mouse liver microsomes at 1 uM preincubated for 10 mins followed by NADPH addition measured over 30 mins by LC-MS/MS analysis; format: ADME; details: read-out: CLH
[8] = Intrinsic clearance in human liver microsomes at 1 uM preincubated for 10 mins followed by NADPH addition measured over 30 mins by LC-MS/MS analysis; format: ADME; details: read-out: CLH
Histone deacetylase 1 = Histone deacetylase 1 (Homo sapiens, UniProt Q13547)
Histone deacetylase 1, sequence (Q13547 whole entry): as the sequence (Q13547 whole entry, looked up, one chain of several) above
Description: Inhibition of HDAC1 (unknown origin) using RHKK(Ac)AMC as substrate

[9] = target: T1, Protein deacetylase HDAC6 (Homo sapiens, UniProt Q9UBN7)
T1 sequence (Q9UBN7 whole entry): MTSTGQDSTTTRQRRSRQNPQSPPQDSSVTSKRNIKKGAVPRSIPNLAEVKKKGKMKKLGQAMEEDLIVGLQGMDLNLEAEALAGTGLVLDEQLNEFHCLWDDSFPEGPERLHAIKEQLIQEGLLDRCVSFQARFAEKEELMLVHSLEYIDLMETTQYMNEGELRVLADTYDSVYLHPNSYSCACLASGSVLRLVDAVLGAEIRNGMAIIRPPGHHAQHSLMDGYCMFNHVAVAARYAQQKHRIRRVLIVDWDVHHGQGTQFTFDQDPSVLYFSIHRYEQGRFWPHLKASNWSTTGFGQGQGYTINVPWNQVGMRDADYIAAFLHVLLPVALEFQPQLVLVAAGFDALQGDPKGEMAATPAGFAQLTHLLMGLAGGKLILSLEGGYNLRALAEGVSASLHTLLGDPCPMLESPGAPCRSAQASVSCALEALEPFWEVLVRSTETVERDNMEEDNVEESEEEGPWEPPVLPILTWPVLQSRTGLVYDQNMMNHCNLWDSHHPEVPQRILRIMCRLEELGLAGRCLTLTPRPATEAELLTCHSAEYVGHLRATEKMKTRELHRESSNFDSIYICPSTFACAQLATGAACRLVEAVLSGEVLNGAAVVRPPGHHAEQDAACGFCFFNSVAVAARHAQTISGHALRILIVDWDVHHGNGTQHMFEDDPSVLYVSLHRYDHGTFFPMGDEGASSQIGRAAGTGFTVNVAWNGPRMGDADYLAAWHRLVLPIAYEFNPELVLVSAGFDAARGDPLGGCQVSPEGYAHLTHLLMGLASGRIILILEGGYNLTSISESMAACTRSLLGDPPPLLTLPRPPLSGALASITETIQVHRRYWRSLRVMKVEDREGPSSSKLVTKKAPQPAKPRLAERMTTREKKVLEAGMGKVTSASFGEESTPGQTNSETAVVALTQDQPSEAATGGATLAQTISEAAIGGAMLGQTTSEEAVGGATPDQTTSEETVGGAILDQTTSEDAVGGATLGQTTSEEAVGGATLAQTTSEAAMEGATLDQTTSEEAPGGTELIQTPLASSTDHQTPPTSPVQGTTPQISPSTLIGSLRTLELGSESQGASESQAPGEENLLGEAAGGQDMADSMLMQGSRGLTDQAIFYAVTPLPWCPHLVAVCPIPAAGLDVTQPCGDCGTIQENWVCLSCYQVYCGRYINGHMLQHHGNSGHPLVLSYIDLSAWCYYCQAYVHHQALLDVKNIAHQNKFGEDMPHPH
Description: Inhibition of HDAC6 (unknown origin) using RHKK(Ac)AMC as substrate

Mus musculus [10] = assay: AUC (0 to infinity) in ICR mouse at 25 mg/kg, iv; format: ADME, organism-based, Plasma; parameters: time infinity, dose 25 mg/kg, route intravenous; details: in vivo
Histone deacetylase 8 = target: T2, Histone deacetylase 8 (Homo sapiens, UniProt Q9BY41)
T2 sequence (Q9BY41 whole entry): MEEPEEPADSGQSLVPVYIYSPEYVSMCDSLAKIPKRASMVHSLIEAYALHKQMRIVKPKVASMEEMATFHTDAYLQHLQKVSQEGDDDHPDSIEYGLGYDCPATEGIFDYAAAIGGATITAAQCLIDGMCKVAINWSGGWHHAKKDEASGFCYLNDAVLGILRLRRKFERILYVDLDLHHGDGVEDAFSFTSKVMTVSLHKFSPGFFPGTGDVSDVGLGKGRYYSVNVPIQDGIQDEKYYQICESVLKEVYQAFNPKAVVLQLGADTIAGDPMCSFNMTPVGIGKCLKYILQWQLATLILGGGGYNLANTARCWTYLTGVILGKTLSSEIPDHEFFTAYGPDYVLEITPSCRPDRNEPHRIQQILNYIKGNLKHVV
Description: Inhibition of HDAC8 (unknown origin) using RHK(Ac)K(Ac)AMC as substrate

[11] = Oral bioavailability in ICR mouse at 50 mg/kg; format: ADME, organism-based; details: in vivo
Cytochrome P450 2D6 = Cytochrome P450 2D6 (Homo sapiens, UniProt P10635); assay: Inhibition of CYP2D6 in human liver microsomes preincubated for 10 mins followed by NADPH addition measured after 30 mins by LC-MS/MS analysis; format: ADME
Cytochrome P450 2D6, sequence (P10635 whole entry): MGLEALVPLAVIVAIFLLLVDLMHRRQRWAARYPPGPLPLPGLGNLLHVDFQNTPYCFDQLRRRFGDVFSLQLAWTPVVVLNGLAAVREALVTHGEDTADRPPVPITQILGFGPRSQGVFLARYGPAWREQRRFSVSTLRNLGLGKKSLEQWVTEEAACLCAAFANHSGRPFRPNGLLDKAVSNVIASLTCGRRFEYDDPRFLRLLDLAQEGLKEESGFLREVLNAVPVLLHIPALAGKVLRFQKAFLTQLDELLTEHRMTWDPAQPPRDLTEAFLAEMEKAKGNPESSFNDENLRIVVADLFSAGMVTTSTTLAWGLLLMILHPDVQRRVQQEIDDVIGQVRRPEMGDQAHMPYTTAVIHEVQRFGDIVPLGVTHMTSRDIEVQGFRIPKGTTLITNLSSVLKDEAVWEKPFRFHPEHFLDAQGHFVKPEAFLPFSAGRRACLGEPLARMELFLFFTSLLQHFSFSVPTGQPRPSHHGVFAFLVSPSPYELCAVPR

[12] = Half life in ICR mouse at 10 mg/kg, iv; format: ADME, organism-based; parameters: dose 10 mg/kg, route intravenous; details: in vivo
[13] = target: T1, Protein deacetylase HDAC6; remark: listed apart in the source
Description: Inhibition of HDAC6 in human A549 cells assessed as induction of tubulin acetylation after 17 to 18 hrs by ELISA

Cytochrome P450 2C9 = Cytochrome P450 2C9 (Homo sapiens, UniProt P11712); assay: Inhibition of CYP2C9 in human liver microsomes preincubated for 10 mins followed by NADPH addition measured after 30 mins by LC-MS/MS analysis; format: ADME
Cytochrome P450 2C9, sequence (P11712 whole entry): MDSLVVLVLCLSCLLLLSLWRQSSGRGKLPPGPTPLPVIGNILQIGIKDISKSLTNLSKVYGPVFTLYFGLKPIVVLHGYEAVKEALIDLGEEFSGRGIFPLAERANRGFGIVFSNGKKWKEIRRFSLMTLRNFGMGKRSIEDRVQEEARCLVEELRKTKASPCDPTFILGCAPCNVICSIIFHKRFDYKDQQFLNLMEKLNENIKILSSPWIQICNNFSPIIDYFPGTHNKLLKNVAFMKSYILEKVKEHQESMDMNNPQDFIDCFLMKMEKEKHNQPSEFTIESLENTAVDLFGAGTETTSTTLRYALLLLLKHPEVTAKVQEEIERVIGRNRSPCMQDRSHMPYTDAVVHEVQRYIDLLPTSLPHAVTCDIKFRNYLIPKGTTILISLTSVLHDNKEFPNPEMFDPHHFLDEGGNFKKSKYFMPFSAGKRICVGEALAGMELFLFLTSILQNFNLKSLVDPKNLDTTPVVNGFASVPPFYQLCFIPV

Mus musculus [14] = assay: AUC (0 to infinity) in ICR mouse at 100 mg/kg, po; format: ADME, organism-based, Plasma; parameters: time infinity, dose 100 mg/kg, route oral; details: in vivo
[15] = Cmax in ICR mouse at 100 mg/kg, po; format: ADME, organism-based; parameters: dose 100 mg/kg, route oral; details: in vivo
Cytochrome P450 2C19 = Cytochrome P450 2C19 (Homo sapiens, UniProt P33261); assay: Inhibition of CYP2C19 in human liver microsomes preincubated for 10 mins followed by NADPH addition measured after 30 mins by LC-MS/MS analysis; format: ADME
Cytochrome P450 2C19, sequence (P33261 whole entry): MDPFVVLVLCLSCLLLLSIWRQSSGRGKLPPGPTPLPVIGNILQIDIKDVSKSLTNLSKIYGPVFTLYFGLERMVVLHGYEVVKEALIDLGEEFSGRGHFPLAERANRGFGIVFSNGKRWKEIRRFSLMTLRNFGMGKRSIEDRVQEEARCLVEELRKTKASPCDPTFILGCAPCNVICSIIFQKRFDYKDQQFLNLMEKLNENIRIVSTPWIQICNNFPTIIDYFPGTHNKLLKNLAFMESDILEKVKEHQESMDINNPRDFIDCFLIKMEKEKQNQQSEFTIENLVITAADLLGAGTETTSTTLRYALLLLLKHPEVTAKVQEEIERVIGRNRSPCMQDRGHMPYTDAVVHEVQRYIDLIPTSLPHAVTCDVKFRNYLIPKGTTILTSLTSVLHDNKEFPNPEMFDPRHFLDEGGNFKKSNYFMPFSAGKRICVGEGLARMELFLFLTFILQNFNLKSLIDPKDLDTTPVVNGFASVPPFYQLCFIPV

Cytochrome P450 1A2 = target: T3, Cytochrome P450 1A2 (Homo sapiens, UniProt P05177); assay: Inhibition of CYP1A2 in human liver microsomes preincubated for 10 mins followed by NADPH addition measured after 30 mins by LC-MS/MS analysis; format: ADME
T3 sequence (P05177 whole entry): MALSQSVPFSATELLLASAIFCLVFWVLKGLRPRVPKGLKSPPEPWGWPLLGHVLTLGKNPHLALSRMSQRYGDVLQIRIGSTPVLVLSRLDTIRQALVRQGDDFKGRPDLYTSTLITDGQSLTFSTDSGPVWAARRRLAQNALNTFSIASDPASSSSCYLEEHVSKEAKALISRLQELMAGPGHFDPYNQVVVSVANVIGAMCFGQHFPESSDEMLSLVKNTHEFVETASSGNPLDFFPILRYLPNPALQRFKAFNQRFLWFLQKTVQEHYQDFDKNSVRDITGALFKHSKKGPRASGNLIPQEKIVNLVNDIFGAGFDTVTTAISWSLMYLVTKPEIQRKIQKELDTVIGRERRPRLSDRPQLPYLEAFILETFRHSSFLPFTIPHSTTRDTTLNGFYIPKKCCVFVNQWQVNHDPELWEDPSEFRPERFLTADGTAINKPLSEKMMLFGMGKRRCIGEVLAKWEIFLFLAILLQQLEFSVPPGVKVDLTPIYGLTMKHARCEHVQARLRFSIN

Cytochrome P450 3A4 = Cytochrome P450 3A4 (Homo sapiens, UniProt P08684); assay: Inhibition of CYP3A4 in human liver microsomes preincubated for 10 mins followed by NADPH addition measured after 30 mins by LC-MS/MS analysis; format: ADME
Cytochrome P450 3A4, sequence (P08684 whole entry): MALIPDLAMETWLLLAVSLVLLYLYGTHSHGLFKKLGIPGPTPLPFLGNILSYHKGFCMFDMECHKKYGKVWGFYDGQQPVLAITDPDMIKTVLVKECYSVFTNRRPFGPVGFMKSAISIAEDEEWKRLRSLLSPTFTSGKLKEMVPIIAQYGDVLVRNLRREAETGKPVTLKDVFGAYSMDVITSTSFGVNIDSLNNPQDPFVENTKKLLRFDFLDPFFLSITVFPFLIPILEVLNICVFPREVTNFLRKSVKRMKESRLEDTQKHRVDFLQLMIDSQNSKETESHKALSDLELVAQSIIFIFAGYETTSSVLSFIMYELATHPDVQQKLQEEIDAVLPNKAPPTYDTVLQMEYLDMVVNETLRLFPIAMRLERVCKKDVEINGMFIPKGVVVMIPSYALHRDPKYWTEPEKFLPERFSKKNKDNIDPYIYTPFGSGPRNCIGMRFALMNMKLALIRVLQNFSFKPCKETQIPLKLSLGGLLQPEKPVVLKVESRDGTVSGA

Mus musculus [16] = assay: AUC (0 to infinity) in ICR mouse at 10 mg/kg, iv; format: ADME, organism-based, Plasma; parameters: time infinity, dose 10 mg/kg, route intravenous; details: in vivo
[17] = Oral bioavailability in ICR mouse at 100 mg/kg; format: ADME, organism-based; details: in vivo

half-life [1]: 0.7 h
Cmax [2]: 34 ng/mL
inhibition [3]: inactive
clearance [4]: 108 mL/min/kg
AUC (Mus musculus [5]): 125 µg/L/h
solubility [6]: 33 µg/mL (≈ 106 µM)
CLint scaled at 1 µM [7]: 26 mL/min/kg
CLint scaled at 1 µM [8]: 4.6 mL/min/kg
pIC50 (Histone deacetylase 1): 4.71
pIC50 [9]: 6.42
AUC (Mus musculus [10]): 3850 µg/L/h
pIC50 (Histone deacetylase 8): 6.68
bioavailability [11]: ≤ 1%
Structure (SMILES): O=C(NO)c1ccc(NC2CCN(c3ccccc3)C2=O)cc1 (stereo unspecified)

pIC50 (Cytochrome P450 2D6): < 4.30
half-life [12]: 2.1 h
pEC50 [13]: 6.52
pIC50 (Cytochrome P450 2C9): < 4.30
AUC (Mus musculus [14]): 10500 µg/L/h
Cmax [15]: 626 ng/mL
pIC50 (Cytochrome P450 2C19): < 4.30
pIC50 (Cytochrome P450 1A2): < 4.30
clearance [4]: 87 mL/min/kg
pIC50 (Cytochrome P450 3A4): < 4.30
solubility [6]: 22 µg/mL (≈ 61.1 µM)
AUC (Mus musculus [16]): 1900 µg/L/h
CLint scaled at 1 µM [7]: 38 mL/min/kg
CLint scaled at 1 µM [8]: 3 mL/min/kg
pIC50 (Histone deacetylase 1): 4.13
pIC50 [9]: 7.77
pIC50 (Histone deacetylase 8): 6.74
bioavailability [17]: 55%
Structure (SMILES): C[C@]1(Nc2ccc(C(=O)NO)cc2)CCN(c2ccc(Cl)cc2)C1=O
